# Experimental data taken from patent US20020065279A1, “Arylsulfonic acid salts of pyrimidine-based antiviral” (priority 2000, published 2002).
# Counter-ions that a name gives are not always drawn. Like-named read-outs stand apart in the source and are kept apart here.
# Tests used:
# [1] = first printed pKa of the acid; cited from earlier work
# [2] = Acid selection: salt formation of compound 1 with acids; type: physicochemical
# Text: In order to prepare suitable formulations of the compounds of formula I below, standard salt formation methods were pursued. […] These acids represent most of the pharmaceutical salts used today.
# [3] = Light stability of salts (ambient light and window glass filtered sunlight, HPLC purity); type: physicochemical
# [4] = Thermal stability of salts at 45° C. (HPLC purity); type: physicochemical
# [5] = Aqueous stability of salts in deionized water (HPLC, UV 254.4 nm); type: physicochemical
# Description: The tosylate salts was evaluated at a concentration of 4.7 mg/mL and the besilate salt was evaluated at a concentration of 3.2 mg/mL. Stability was monitored via HPLC using UV detection at 254.4 nm.
# [6] = Aqueous solubility of compound 1 free base and salts; type: physicochemical
# Text: A variety of pyrimidine-based antiviral compounds have been described in co-pending U.S. Ser. No. 09/249,64 1, filed Feb. 12, 1999 and in PCT application US99/03136. The development of a pyrimidine-based antiviral agent (such as those described hereinbelow) for clinical use required the identification of a salt form with optimal physical and chemical properties. The most critical properties included crystallinity, aqueous solubility, light stability and thermal stability. As noted above, applications U.S. Ser. No. 09/249,641 and PCT US99/03136 describe pyrimidine derivatives both as free bases and as their pharmaceutically acceptable salts. Among the salts listed for this group of compounds exre hydrochloric, hydrobromic, nitric, carbonic, monohydrogencarbonic, phosphoric, monohydrogenphosphoric, dihydrogenphosphoric, sulfuric, monohydrogensulfuric, hydriodic, or phosphorous acids and the like, as well as the salts derived from organic acids like acetic, propionic, isobutyric, oxalic, maleic, malonic, benzoic, succinic, suberic, fumaric, mandelic, phthalic, benzenesulfonic, p-tolylsulfonic, citric, tartaric, miethanesulfonic, and the like. Also included are salts of amino acids such as arginate and the like, and salts of organic acids like glucuronic or galactunoric acids and the like.
# The besilate and tosylate salts represent improvement over the free base in solubility as described in Table 2 below. The increase in solubility represents a significant advantage over the free base for formulations that are suitable for therapeutic administration.
# [7] = pKa of the free base of compound 1
compound,measurement,setting,value
NC(=O)CCC(=O)O [Succinamic],pKa (acid),[1],4.4
same,Result (salt formation with compound 1),[2]; Solvent EtOAc,No salt formed
same,Result (salt formation with compound 1),[2]; Solvent EtOAc/MeOH,No salt formed
O=C(O)c1ccccc1 [Benzoic],Result (salt formation with compound 1),[2]; Solvent Et2O,No salt formed
same,Result (salt formation with compound 1),[2]; Solvent EtOAc,No salt formed
"Cc1nc(N2CCOCC2C)nc(-n2ccnc2)c1[N+](=O)[O-] (stereo not drawn) [Besilate Salt, 2-(3S-3-methylmorpholino)-4-(imidazol-1-yl)-6-methyl-5-nitropyrimidine benzenesulfonate]","purity %, HPLC (light stability)",[3]; 24 hours,100%
same,"purity %, HPLC (light stability)",[3]; 48 hours,100%
same,"purity %, HPLC (light stability)",[3]; 216 hours,97.3%
same,"purity %, HPLC (light stability)",[3]; 1560 hours,93.1%
same,"purity %, HPLC (thermal stability)",[4]; 8 hours,100%
same,"purity %, HPLC (thermal stability)",[4]; 24 hours,100%
same,"purity %, HPLC (thermal stability)",[4]; 48 hours,100%
same,"purity %, HPLC (thermal stability)",[4]; 72 hours,100%
same,"purity %, HPLC (thermal stability)",[4]; 170 hours,100%
same,"purity %, HPLC (thermal stability)",[4]; 250 hours,100%
same,"purity %, HPLC (thermal stability)",[4]; 1632 hours,100%
same,"purity %, HPLC (aqueous stability)","[5]; 3.2 mg/mL, 48 hours",100%
same,"purity %, HPLC (aqueous stability)","[5]; 3.2 mg/mL, 147 hours",100%
same,"purity %, HPLC (aqueous stability)","[5]; 3.2 mg/mL, 171 hours",97.4%
same,"purity %, HPLC (aqueous stability)","[5]; 3.2 mg/mL, 201 hours",91.7%
same,"purity %, HPLC (aqueous stability)","[5]; 3.2 mg/mL, 216 hours",91.7%
same,"purity %, HPLC (aqueous stability)","[5]; 3.2 mg/mL, 1560 hours",61.4%
same,Aqueous Solubility,[6]; listed as Resilate Salt,44 mg/mL
O=C(O)CC(O)(CC(=O)O)C(=O)O [Citric],Result (salt formation with compound 1),[2]; Solvent Et2O,No salt formed
same,Result (salt formation with compound 1),[2]; Solvent EtOAc,No salt formed
same,Result (salt formation with compound 1),[2]; Solvent EtOAc/MeOH,No salt formed
O=C(O)c1cccc(O)c1 [3-Hydroxybenzoic],Result (salt formation with compound 1),[2]; Solvent EtOAc,No salt formed
L-Tartaric,Result (salt formation with compound 1),[2]; Solvent Et2O,No salt formed
same,Result (salt formation with compound 1),[2]; Solvent EtOAc,No salt formed
same,Result (salt formation with compound 1),[2]; Solvent EtOH,No salt formed
same,Result (salt formation with compound 1),[2]; Solvent MeOH,No salt formed
"Cc1nc(N2CCOCC2C)nc(-n2ccnc2)c1[N+](=O)[O-] (stereo not drawn) [Tosylate Salt, 2-(3S-3-methylmorphoamino)-4-(imidazol-1-yl)-6-methyl-5-nitropyrimidine p-toluenesulfonate]","purity %, HPLC (light stability)",[3]; 24 hours,100%
same,"purity %, HPLC (light stability)",[3]; 48 hours,100%
same,"purity %, HPLC (light stability)",[3]; 216 hours,97.6%
same,"purity %, HPLC (light stability)",[3]; 1560 hours,86.6%
same,"purity %, HPLC (thermal stability)",[4]; 8 hours,100%
same,"purity %, HPLC (thermal stability)",[4]; 24 hours,100%
same,"purity %, HPLC (thermal stability)",[4]; 48 hours,100%
same,"purity %, HPLC (thermal stability)",[4]; 72 hours,100%
same,"purity %, HPLC (thermal stability)",[4]; 170 hours,100%
same,"purity %, HPLC (thermal stability)",[4]; 250 hours,100%
same,"purity %, HPLC (thermal stability)",[4]; 1632 hours,100%
same,"purity %, HPLC (aqueous stability)","[5]; 4.7 mg/mL, 48 hours",100%
same,"purity %, HPLC (aqueous stability)","[5]; 4.7 mg/mL, 147 hours",100%
same,"purity %, HPLC (aqueous stability)","[5]; 4.7 mg/mL, 171 hours",97.3%
same,"purity %, HPLC (aqueous stability)","[5]; 4.7 mg/mL, 201 hours",93.1%
same,"purity %, HPLC (aqueous stability)","[5]; 4.7 mg/mL, 216 hours",92.8%
same,"purity %, HPLC (aqueous stability)","[5]; 4.7 mg/mL, 1560 hours",64.6%
same,Aqueous Solubility,[6],36 mg/mL
O=C(O)/C=C\C(=O)O [Maleic],Result (salt formation with compound 1),[2]; Solvent Et2O,No salt formed
same,Result (salt formation with compound 1),[2]; Solvent EtOAc,No salt formed
"Cc1nc(N2CCOCC2C)nc(-n2ccnc2)c1[N+](=O)[O-] (stereo not drawn) [Compound 1, 2-(3S-3-methylmorpholino)-4-(imidazol-1-yl)-6-methyl-5-nitropyrimidine]",Aqueous Solubility,[6],1.68 mg/mL
same,pKa,[7],4.09
O=C(O)[C@@H](O)[C@H](O)C(=O)O [D-Tartaric],Result (salt formation with compound 1),[2]; Solvent EtOAc,No salt formed
same,Result (salt formation with compound 1),[2]; Solvent MeOH,No salt formed
O=CO [Formic],Result (salt formation with compound 1),[2]; Solvent EtOH,No salt formed
Fumaric,Result (salt formation with compound 1),[2]; Solvent EtOAc/MeOH,No salt formed
CS(=O)(=O)O [Methanesulfonic],Result (salt formation with compound 1),[2]; Solvent CH2Cl2,Decomposition
same,Result (salt formation with compound 1),[2]; Solvent Et2O,Decomposition
same,Result (salt formation with compound 1),[2]; Solvent EtOAc,Decomposition
same,Result (salt formation with compound 1),[2]; Solvent EtOAc/CH2Cl2,Decomposition
same,Result (salt formation with compound 1),[2]; Solvent EtOAc/hexanes,Decomposition
O=[N+]([O-])O [Nitric],pKa (acid),[1],−1.4
same,Result (salt formation with compound 1),[2]; Solvent EtOH,Decomposition
CC(=O)O [Acetic],Result (salt formation with compound 1),[2]; Solvent Et2O,No salt formed
Cc1ccc(S(=O)(=O)O)cc1 [Toluenesulfonic],Result (salt formation with compound 1),[2]; Solvent CHCl3/hexanes,Yellow crystals
same,Result (salt formation with compound 1),[2]; Solvent EtOAc,Yellow crystals
Cl [Hydrochloric],Result (salt formation with compound 1),[2]; Solvent CH3CN,Decomposition
same,Result (salt formation with compound 1),[2]; Solvent CHCl3,Decomposition
same,Result (salt formation with compound 1),[2]; Solvent Et2O,Decomposition
same,Result (salt formation with compound 1),[2]; Solvent EtOAc,Decomposition
same,Result (salt formation with compound 1),[2]; Solvent IPA,Decomposition
same,Result (salt formation with compound 1),[2]; Solvent MeOH,Decomposition
O=C(O)c1ccccc1O [Salicylic],Result (salt formation with compound 1),[2]; Solvent Et2O,No salt formed
same,Result (salt formation with compound 1),[2]; Solvent EtOAc,No salt formed
Benzenesulfonic,pKa (acid),[1],1.6
same,Result (salt formation with compound 1),[2]; Solvent CH2Cl2/hexanes,Yellow crystals
same,Result (salt formation with compound 1),[2]; Solvent CH3CN,Yellow crystals
same,Result (salt formation with compound 1),[2]; Solvent CHCl3/hexanes,Yellow crystals
same,Result (salt formation with compound 1),[2]; Solvent EtOAc/MeOH,Yellow crystals
same,Result (salt formation with compound 1),[2]; Solvent EtOH,Yellow crystals
same,Result (salt formation with compound 1),[2]; Solvent EtOH/hexanes,Yellow crystals
O=S(=O)(O)O [Sulfuric],Result (salt formation with compound 1),[2]; Solvent EtOH,Decomposition
Br [Hydrobromic],Result (salt formation with compound 1),[2]; Solvent EtOH,Decomposition
